Measured values: ChEMBL document CHEMBL3885861, “Open TG-GATES”

Species on record: Rattus norvegicus
Experiment: Open TG-GATES - Regimen: Single
Type: toxicity, organism-based, Sprague-Dawley
Set-up: regimen Single, gender Male, age 6 weeks
Conditions: in vivo, po, 30 mg/kg, route gavage, dose level Middle; for APTT / Bas / Eos / Fbg / Hb / Ht / Lym / MCH / MCHC / MCV / Mono / Neu / PT / Plat / RBC / Ret / WBC: tissue Blood; for KIDNEY_L / KIDNEY_R / KIDNEY_TOTAL: tissue Kidney; for LIVER: tissue Liver; for A/G / ALP / ALT / AST / BUN / CRE / Ca / Cl / DBIL / GLC / IP / K / LDH / Na / PL / RALB / TBIL / TC / TG / TP / gamma-GTP: tissue Plasma

## CC1=C(/C=C/C(C)=C/C=C/C(C)=C/CO)C(C)(C)CCC1 [RETINOL]
3 h
  TERMINAL_BW: 204 g
  APTT: 21.5 s
  Bas: 0%
  Eos: 1.2%
  Fbg: 295.2 mg/dL
  Hb: 13.2 g/dL
  Ht: 38.6%
  Lym: 77.6%
  MCH: 21.6 pg
  MCHC: 34.1%
  MCV: 63.4 fL
  Mono: 3%
  Neu: 17.6%
  PT: 15.9 s
  Plat: 124.8 x10_4/uL
  RBC: 609.8 x10_4/ul
  Ret: 8.3%
  WBC: 84.2 x10_2/uL
  KIDNEY_L: 0.9 g
  KIDNEY_R: 0.9 g
  KIDNEY_TOTAL: 1.8 g
  LIVER: 9.3 g
  A/G: 1.3
  ALP: 1939.2 IU/L
  ALT: 48.2 IU/L
  AST: 80 IU/L
  BUN: 13.4 mg/dL
  CRE: 0.1 mg/dL
  Ca: 11.3 mg/dL
  Cl: 106.2 meq/L
  DBIL: 0 mg/dL
  GLC: 176.4 mg/dL
  IP: 9 mg/dL
  K: 4.2 meq/L
  LDH: 231 IU/L
  Na: 141.2 meq/L
  PL: 165.4 mg/dL
  RALB: 3.1 g/dL
  TBIL: 0.004 mg/dL
  TC: 83.2 mg/dL
  TG: 153.8 mg/dL
  TP: 5.7 g/dL
  gamma-GTP: 3.6 IU/L
6 h
  TERMINAL_BW: 195.5 g
  APTT: 21.5 s
  Bas: 0%
  Eos: 0.8%
  Fbg: 302.4 mg/dL
  Hb: 13.4 g/dL
  Ht: 38.7%
  Lym: 77.8%
  MCH: 21.1 pg
  MCHC: 34.5%
  MCV: 61.2 fL
  Mono: 2.8%
  Neu: 17.8%
  PT: 15.5 s
  Plat: 119.2 x10_4/uL
  RBC: 633.8 x10_4/ul
  Ret: 7.3%
  WBC: 101.4 x10_2/uL
  KIDNEY_L: 0.9 g
  KIDNEY_R: 0.9 g
  KIDNEY_TOTAL: 1.8 g
  LIVER: 8.2 g
  A/G: 1.2
  ALP: 1586.8 IU/L
  ALT: 36.2 IU/L
  AST: 72.2 IU/L
  BUN: 8.8 mg/dL
  CRE: 0.1 mg/dL
  Ca: 10.8 mg/dL
  Cl: 107.6 meq/L
  DBIL: 0.004 mg/dL
  GLC: 176.8 mg/dL
  IP: 9.8 mg/dL
  K: 4.4 meq/L
  LDH: 224.8 IU/L
  Na: 142 meq/L
  PL: 146.2 mg/dL
  RALB: 3.1 g/dL
  TBIL: 0.01 mg/dL
  TC: 74.6 mg/dL
  TG: 119.6 mg/dL
  TP: 5.6 g/dL
  gamma-GTP: 1 IU/L
9 h
  TERMINAL_BW: 195.6 g
  APTT: 21.7 s
  Bas: 0%
  Eos: 1%
  Fbg: 317 mg/dL
  Hb: 13.3 g/dL
  Ht: 38.5%
  Lym: 75.2%
  MCH: 21.3 pg
  MCHC: 34.5%
  MCV: 61.8 fL
  Mono: 2.8%
  Neu: 21%
  PT: 15.5 s
  Plat: 115.9 x10_4/uL
  RBC: 623.4 x10_4/ul
  Ret: 7.7%
  WBC: 94.3 x10_2/uL
  KIDNEY_L: 0.9 g
  KIDNEY_R: 0.9 g
  KIDNEY_TOTAL: 1.8 g
  LIVER: 8.3 g
  A/G: 1.3
  ALP: 1640.4 IU/L
  ALT: 33 IU/L
  AST: 67.4 IU/L
  BUN: 10 mg/dL
  CRE: 0.2 mg/dL
  Ca: 11 mg/dL
  Cl: 106 meq/L
  DBIL: 0.008 mg/dL
  GLC: 181 mg/dL
  IP: 11.1 mg/dL
  K: 4.2 meq/L
  LDH: 253.4 IU/L
  Na: 141.2 meq/L
  PL: 136 mg/dL
  RALB: 3.1 g/dL
  TBIL: 0.014 mg/dL
  TC: 72 mg/dL
  TG: 82.6 mg/dL
  TP: 5.5 g/dL
  gamma-GTP: 1 IU/L
24 h
  TERMINAL_BW: 208 g
  APTT: 21.8 s
  Bas: 0%
  Eos: 0.6%
  Fbg: 303.2 mg/dL
  Hb: 13.1 g/dL
  Ht: 38.6%
  Lym: 79.4%
  MCH: 21.5 pg
  MCHC: 34.1%
  MCV: 63.1 fL
  Mono: 3%
  Neu: 16.2%
  PT: 15.9 s
  Plat: 124 x10_4/uL
  RBC: 612.6 x10_4/ul
  Ret: 7.8%
  WBC: 76.3 x10_2/uL
  KIDNEY_L: 0.9 g
  KIDNEY_R: 0.9 g
  KIDNEY_TOTAL: 1.9 g
  LIVER: 10.1 g
  A/G: 1.4
  ALP: 1811.2 IU/L
  ALT: 42.6 IU/L
  AST: 75.8 IU/L
  BUN: 16.6 mg/dL
  CRE: 0.2 mg/dL
  Ca: 10.8 mg/dL
  Cl: 107.2 meq/L
  DBIL: 0.002 mg/dL
  GLC: 193 mg/dL
  IP: 7.2 mg/dL
  K: 4.2 meq/L
  LDH: 242.4 IU/L
  Na: 141.6 meq/L
  PL: 148.2 mg/dL
  RALB: 3.2 g/dL
  TBIL: 0.006 mg/dL
  TC: 74.2 mg/dL
  TG: 114 mg/dL
  TP: 5.6 g/dL
  gamma-GTP: 1.2 IU/L
